Data as given in publication PMC10508264, “Exploring the antioxidant, antimicrobial, cytotoxic and biothermodynamic properties of novel morpholine derivative bioactive Mn(II), Co(II) and Ni(II) complexes – combined experimental and theoretical measurements towards DNA/BSA/SARS-CoV-2 3CL^Pro” (RSC Medicinal Chemistry, 2023).

Experiments:
Staphylococcus Aureus = test: Agar disc diffusion, strain F; type: cell-based; design: Inhibition%: concentration or dose not given beside the values; details: for Diameter of clear zone inhibition: control 6 mm
Bacillus cereu = test: Agar disc diffusion, strain G; type: cell-based; design: Inhibition%: concentration or dose not given beside the values; details: for Diameter of clear zone inhibition: control 6 mm
Pseudomonas aeruginosa = test: Agar disc diffusion, strain D; type: cell-based; design: Inhibition%: concentration or dose not given beside the values; details: for Diameter of clear zone inhibition: control 6 mm
Shigella flexneri = test: Agar disc diffusion, strain E; type: cell-based; design: Inhibition%: concentration or dose not given beside the values; details: for Diameter of clear zone inhibition: control 6 mm
[1] = system: Salmonella enterica serovar typhi; test: Agar disc diffusion, strain B; type: cell-based; details: for Diameter of clear zone inhibition: control 6 mm
Escherichia coli = test: Agar disc diffusion, strain A; type: cell-based; design: Inhibition%: concentration or dose not given beside the values; details: for Diameter of clear zone inhibition: control (DMSO) 6 mm
[2] = system: Salmonella enterica serovar typhi; test: Agar disc diffusion, strain C; type: cell-based; details: for Diameter of clear zone inhibition: control 6 mm
Mucor indicus = test: Agar disc diffusion, strain J; type: cell-based; design: Inhibition%: concentration or dose not given beside the values; details: for Diameter of clear zone inhibition: control 6 mm
Candida albicans = test: Agar disc diffusion, strain I; type: cell-based; design: Inhibition%: concentration or dose not given beside the values; details: for Diameter of clear zone inhibition: control 6 mm
Aspergillus niger = test: Agar disc diffusion, strain H; type: cell-based; design: Inhibition%: concentration or dose not given beside the values; details: for Diameter of clear zone inhibition: control 6 mm
[3] = Nitric oxide scavenging assay; type: biochemical; details: 546 nm
[4] = Hydroxyl radical scavenging assay; type: biochemical; details: for % Inhibition, hydroxyl radical: 230 nm
[5] = DPPH radical scavenging assay; type: biochemical; details: for % Inhibition, DPPH: 517 nm
[6] = Superoxide scavenging assay; details: 590 nm
NHDF = test: MTT cell viability assay, NHDF; type: cell-based, human; details: NHDF normal cells, 72 h of exposure
Method: Cellular viability or metabolic properties can be measured using the MTT assay, which is a powerful and consistent method for cytotoxic properties. […] As per the colorimetric approach, the IC50 values of all compounds were evaluated via the percentage of cell viability or inhibition of growth.[128] […] However, complexes (2) and (3) were exposed to similar cytotoxic potential as the others,[129] which induces apoptosis due to their ability to produce ROS more efficiently than the free ligand. […] The cytotoxic effectiveness is dependent upon the DNA binding modalities, the structure–activity relationship, the drug concentrations, and the incubation period exposure.[130] […] Coordination between the ligands and metal ions results in charge equilibration, which diminishes the polarity of the metal ions and also causes the ability of the test complexes to pass via the cell membrane lipid layer in accordance with Tweedy's chelation theory. Thus, it inhibits the synthesis of cell-wall/protein/nucleic acid. Additionally, the results of DNA binding tests using these complexes, including gel electrophoresis, UV-vis spectral titration, hydrodynamics, emission, and CV findings, were in good agreement with the findings of cytotoxicity.[131] Expressions eqn (44) and (45) were applied to measure the percentage of growth inhibition and cell viability (Table 10). In this case, complexes (2) and (3) have been proven to have greater biological efficiency than the others. Cytotoxicity depends on not only the hydrophilicity or lipophilicity and permeability, which only assist the crossing of the cell membrane but are not responsible for cell death, but also on several other factors, including the Lewis acid character, overall stability, solubility, conductivity, compatibility, length of the metal–ligand bond, overall charge, electron density, reduction potential, dipole moment, intermolecular hydrogen bonds, proton transfer equilibrium, and coordination environment. These significant elements might also contribute to the increased biological activity. Moreover, cobalt is also generally not considered to be a very toxic element, and its coordination complexes have fascinating redox and magnetic characteristics that fit them for a remarkable range of biological and medical uses. […] Moreover, it is possible to intelligently adjust these factors to successfully target a desired pathway or biomolecule. Designing such well-controlled and selective cobalt-based therapeutics may benefit from a mechanistic understanding of the varied bioactivities of cobalt complexes. Thus, knowing the mechanism of action can direct the advancement of prospective cobalt treatments to clinical trial.[133]
2.5. Assessment of in-vitro antimicrobial properties
bacteria and 7 days for fungal strains.

MCF-7 = test: MTT cell viability assay, MCF-7; type: cell-based, human; details: MCF-7, 72 h of exposure
HepG2 = test: MTT cell viability assay, HepG2; type: cell-based, human; details: HepG2, 72 h of exposure
A549 = test: MTT cell viability assay, A549; type: cell-based, human; details: A549, 72 h of exposure
CT-DNA [7] = test: DNA thermal denaturation / biothermodynamic properties; type: binding; details: adduct vs CT-DNA alone
CT-DNA [8] = test: DNA binding by viscometric (hydrodynamic) technique
Method: The hydrodynamic properties were measured using an Ostwald viscometer with the help of a thermostat (25 ± 0.1 °C). The specific viscosity of DNA was also measured in the presence and absence of the test samples.[13,30]
Generally, when the major/minor groove binding, electrostatic, partial, and non-classical interaction modes are involved between chemical substances and DNA base pairs, the final DNA relative viscosity remains unchanged or undergoes a very negligible change due to reducing the contour length of DNA. When the intercalation binding modes are involved between a chemical substance and DNA base pairs via π–π stacking interactions and hydrophobic forces, an increase in relative viscosity is noted due to a rise in the contour length of DNA. Moreover, for the purpose of observing alterations in the CT-DNA helical structure, the viscosity findings for CT-DNA, various concentrations of chemical substances present, and EtBr were recorded. It was also noted that the absolute viscosity rose consistently along with the incremental concentration of each substance at the fixed DNA concentration. As a result of the strong binding mode of intercalation, the contour length of the double-helix DNA rises.[72] The obtained results are also compared with those of the classical intercalator (EB). The affinity interaction and their slope values were observed from the relative specific viscosity (η/η0)^1/3 plotted as a straight line contrasting [compound]/[DNA] and absolute specific viscosity of DNA in the presence or absence of chemical substances was evaluated using eqn (11) (Table 3). In the experiment, it was clearly noted that the slope values for all samples increased due to the rising binding affinity. The evaluated slopes were in the following sequence: (EB) 1.215 > (2) 0.860 > (3) 0.801 > (1) 0.662 > (HL) 0.490 (Fig. S21 ^† and Table 3). […] Due to the existence of 2,2′-bipyridine and the morpholine-fused aromatic planar systems, compounds can interact with DNA robustly via intercalation. The outcomes agreed with the observed outcomes of electronic absorption spectral characteristics.
11 [drawing 21] where η and η0 represent the specific viscosity of DNA in the presence of the complex and the specific viscosity of DNA alone, t0, tDNA and tcomplex represent the average flow time of the Tris–HCl buffer solution, the average flow time of the DNA alone solution, and the average flow time of DNA interacted with the samples, respectively. Error limit ± 2.5% (P < 0.025). […]
2.2.4. Assessment of DNA affinity by hydrodynamic technique
Hydrodynamic properties were performed using an Ostwald viscometer with the help of a thermostat (25 ± 0.1 °C). The experiment was performed of all samples, including ethidium bromide at various concentrations (20, 40, 60, 80, 100 µM) and each test compound was mixed with the deoxyribonucleic acid solution (100 µM) in the Ostwald viscometer. With a help of digital stopwatch, average flow time was gauged three times for each addition, and the specific viscosity of deoxyribonucleic acid was also measured in the presence and absence of test samples. […]
Also, the emission spectral titration for all compounds was also carried out at a fixed concentration (25 μM) of BSA with an incremental concentration of substances (0–25 µM)

For `NCC[C@H](O)C(=O)N[C@@H]1C[C@H](N)[C@@H](O[C@H]2O[C@H](CN)[C@@H](O)[C@H](O)[C@H]2O)[C@H](O)[C@H]1O[C@H]1O[C@H](CO)[C@@H](O)[C@H](N)[C@H]1O` [Amikacin, amikacin, reference compound], the Inhibition% (Staphylococcus Aureus) was 70%, the “Diameter of clear zone inhibition” value (Staphylococcus Aureus) was 20 mm and the Inhibition% (Bacillus cereu) was 70%. The “Diameter of clear zone inhibition” value (Bacillus cereu) was 20 mm, the Inhibition% (Pseudomonas aeruginosa) was 70% and the “Diameter of clear zone inhibition” value (Pseudomonas aeruginosa) was 20 mm. The Inhibition% (Shigella flexneri) was 70%, the “Diameter of clear zone inhibition” value (Shigella flexneri) was 20 mm and the Inhibition% [1] was 73%. For the same molecule, the “Diameter of clear zone inhibition” value [1] was 22 mm, the Inhibition% (Escherichia coli) was 73% and the “Diameter of clear zone inhibition” value (Escherichia coli) was 22 mm. The Inhibition% [2] was 75% and the “Diameter of clear zone inhibition” value [2] was 24 mm.

In the case of `C[C@@H]1[C@H](O)[C@@H](C)/C=C/C=C/C=C/C=C/C=C/C=C/C=C/[C@H](O[C@@H]2O[C@H](C)[C@@H](O)[C@H](N)[C@@H]2O)C[C@@H]2O[C@](O)(C[C@@H](O)C[C@@H](O)[C@H](O)CC[C@@H](O)C[C@@H](O)CC(=O)O[C@H]1C)C[C@H](O)[C@H]2C(=O)O` [Amphotericin B, amphotericin B, reference compound], the Inhibition% (Mucor indicus) is reported as 65%, the “Diameter of clear zone inhibition” value (Mucor indicus) is reported as 17 mm and the Inhibition% (Candida albicans) is reported as 65%. For the same molecule, the “Diameter of clear zone inhibition” value (Candida albicans) was 17 mm, the Inhibition% (Aspergillus niger) was 60% and the “Diameter of clear zone inhibition” value (Aspergillus niger) was 15 mm.

With `O=C1O[C@H]([C@@H](O)CO)C(O)=C1O` [Ascorbic acid, ascorbic acid, reference compound] the “% Inhibition, nitric oxide” value ([3]; 40 µM) was 28.55%, the “% Inhibition, nitric oxide” value ([3]; 80 µM) was 35.75% and the “% Inhibition, nitric oxide” value ([3]; 120 µM) was 43.65%. The “% Inhibition, nitric oxide” value ([3]; 160 µM) was 52.68%, the “% Inhibition, nitric oxide” value ([3]; 200 µM) was 63.72% and the “% Inhibition, nitric oxide” value ([3]; 240 µM) was 72.73%. The IC50 [4] was 160 µM, the “% Inhibition, hydroxyl radical” value ([4]; 40 µM) was 20.73% and the “% Inhibition, hydroxyl radical” value ([4]; 80 µM) was 36.46%. For the same molecule, the “% Inhibition, hydroxyl radical” value ([4]; 120 µM) was 47.87%, the “% Inhibition, hydroxyl radical” value ([4]; 160 µM) was 59.65% and the “% Inhibition, hydroxyl radical” value ([4]; 200 µM) was 65.64%. For the same molecule, the “% Inhibition, hydroxyl radical” value ([4]; 240 µM) was 78.83%, the IC50 [5] was 80 µM and the “% Inhibition, DPPH” value ([5]; 40 µM) was 41.63%. The “% Inhibition, DPPH” value ([5]; 80 µM) was 53.74%, the “% Inhibition, DPPH” value ([5]; 120 µM) was 58.95% and the “% Inhibition, DPPH” value ([5]; 160 µM) was 70.86%. For the same molecule, the “% Inhibition, DPPH” value ([5]; 200 µM) was 82.75%, the “% Inhibition, DPPH” value ([5]; 240 µM) was 85.65% and the “% Inhibition, superoxide” value ([6]; 40 µM) was 29.64%. The “% Inhibition, superoxide” value ([6]; 80 µM) was 41.72%, the “% Inhibition, superoxide” value ([6]; 120 µM) was 55.63% and the “% Inhibition, superoxide” value ([6]; 160 µM) was 66.75%. For the same molecule, the “% Inhibition, superoxide” value ([6]; 200 µM) was 72.55% and the “% Inhibition, superoxide” value ([6]; 240 µM) was 84.85%.

`N.N.[Cl][Pt][Cl]` [Cisplatin, cisplatin, reference compound] gave an IC50 (NHDF) of 26.9 ± 1.3 µM, an IC50 (MCF-7) of 20.2 ± 1 µM and an IC50 (HepG2) of 22.9 ± 1.1 µM. It also gave an IC50 (A549) of 31.9 ± 1.6 µM.

With `CC[n+]1c(-c2ccccc2)c2cc(N)ccc2c2ccc(N)cc21` [EB, ethidium bromide, reference compound] the ΔTm (CT-DNA [7]) was 13 °C, the “Slope of (η/η0)^1/3 vs [compound]/[DNA]” value (CT-DNA [8]) was 1.215 and the “Relative specific viscosity (η/η0)^1/3” value (CT-DNA [8]; [complex]/[DNA] = 0.2) was 1.01. The “Relative specific viscosity (η/η0)^1/3” value (CT-DNA [8]; [complex]/[DNA] = 0.4) was 1.35, the “Relative specific viscosity (η/η0)^1/3” value (CT-DNA [8]; [complex]/[DNA] = 0.6) was 1.63 and the “Relative specific viscosity (η/η0)^1/3” value (CT-DNA [8]; [complex]/[DNA] = 0.8) was 1.82. The “Relative specific viscosity (η/η0)^1/3” value (CT-DNA [8]; [complex]/[DNA] = 1.0) was 1.99.

With `CC(=O)N1CCN(c2ccc(OCC3COC(Cn4ccnc4)(c4ccc(Cl)cc4Cl)O3)cc2)CC1` (centres unmarked) [Ketoconazole, ketoconazole, reference compound] the Inhibition% (Mucor indicus) was 67%, the “Diameter of clear zone inhibition” value (Mucor indicus) was 18 mm and the Inhibition% (Candida albicans) was 67%. The “Diameter of clear zone inhibition” value (Candida albicans) was 18 mm, the Inhibition% (Aspergillus niger) was 63% and the “Diameter of clear zone inhibition” value (Aspergillus niger) was 16 mm.

For `[H]/N=C(/N)N[C@H]1[C@H](O)[C@@H](O)[C@H](O[C@@H]2O[C@@H](C)[C@](O)(C=O)[C@H]2O[C@@H]2O[C@@H](CO)[C@H](O)[C@@H](O)[C@@H]2NC)[C@@H](N/C(N)=N\[H])[C@@H]1O` [Streptomycin, streptomycin, reference compound], the Inhibition% (Staphylococcus Aureus) was 71%, the “Diameter of clear zone inhibition” value (Staphylococcus Aureus) was 21 mm and the Inhibition% (Bacillus cereu) was 71%. For the same molecule, the “Diameter of clear zone inhibition” value (Bacillus cereu) was 21 mm, the Inhibition% (Pseudomonas aeruginosa) was 71% and the “Diameter of clear zone inhibition” value (Pseudomonas aeruginosa) was 21 mm. For the same molecule, the Inhibition% (Shigella flexneri) was 76%, the “Diameter of clear zone inhibition” value (Shigella flexneri) was 25 mm and the Inhibition% [1] was 77%. The “Diameter of clear zone inhibition” value [1] was 26 mm, the Inhibition% (Escherichia coli) was 75% and the “Diameter of clear zone inhibition” value (Escherichia coli) was 24 mm. The Inhibition% [2] was 75% and the “Diameter of clear zone inhibition” value [2] was 24 mm.
